Laboratory results taken from US20250144067A1, “PERSONALIZED STARVATION THERAPY FOR CANCER” (Faeth Therapeutics, Inc., priority 2021, published 2025).
Counter-ions that a name gives are not always drawn.

What was measured:
[1] = test system: NCI-H292 lung cancer cells; test: FDA drug screening, complete media vs cholesterol-free media without statin (TABLE 1); format: cell-based, human
[2] = test system: NCI-H292 lung cancer cells; test: FDA drug screening, complete media vs cholesterol-free media with simvastatin (TABLE 2); format: cell-based, human; settings: for Cholesterol-free media + simvastatin (0.04 μM) / Complete Media: NCI-H292 cells
[3] = NCI-H292 cells, cholesterol-free media without statin, FDA drug library screen
[4] = NCI-H292 cells, complete media, FDA drug library screen
[5] = complete vs cholesterol-free media, >0 enhanced anti-cancer activity, about 0 neutral, <0 antagonist
[6] = drug in cholesterol-free media with simvastatin 0.04 μM
[7] = complete media vs cholesterol-free media + simvastatin (0.04 μM), >0 enhanced anti-cancer activity, about 0 neutral, <0 antagonist
[8] = Complete minus Cholesterol-free, greater than 0 enhanced anti-cancer activity, about 0 neutral, below 0 antagonist
[9] = NCI-H292 cells, FDA drug library screen, cholesterol-free media without statin
[10] = NCI-H292 cells, FDA drug library screen, complete media
[11] = cholesterol-free media with simvastatin 0.04 μM, FDA drug library screen (TABLE 2)
[12] = complete media, FDA drug library screen (TABLE 2)
[13] = complete media minus cholesterol-free media + simvastatin (0.04 μM), >0 enhanced anti-cancer activity, about 0 neutral, <0 antagonist
[14] = NCI-H292 cells, cholesterol-free media without statin
[15] = FDA library drug in cholesterol-free media with simvastatin 0.04 μM
[16] = FDA library drug in complete media
[17] = Complete minus Cholesterol-free, >0 enhanced anti-cancer activity, about 0 neutral, <0 antagonist
[18] = NCI-H292 cells in cholesterol-free media without statin
[19] = NCI-H292 cells in complete media
[20] = FDA drug library screen, cholesterol-free media with simvastatin 0.04 μM
[21] = FDA drug library screen, complete media
[22] = complete media minus cholesterol-free media + simvastatin, >0 enhanced anti-cancer activity, about 0 neutral, <0 antagonist

## NS(=O)(=O)c1cc2c(cc1Cl)N=CNS2(=O)=O [Chlorothiazide]
[1]; [3]
  Cholesterol-free: 0.8661
[1]; [4]
  Complete: 1.321
[1]; [5]
  Difference: 0.45
[2]; [6]
  Cholesterol-free media + simvastatin (0.04 μM): 1.126
[2]; drug in complete media
  Complete Media: 0.9372
[2]; [7]
  Difference: −0.19

## CCC(=O)O[C@]1(C(=O)CCl)[C@@H](C)C[C@H]2[C@@H]3C[C@H](F)C4=CC(=O)C=C[C@]4(C)[C@@]3(F)[C@@H](O)C[C@@]21C [Halobetasol (propionate)]
[1]; [8]
  Difference: −0.18
[1]; [9]
  Cholesterol-free: 0.7462
[1]; [10]
  Complete: 0.5641
[2]; [11]
  Cholesterol-free media + simvastatin (0.04 μM): 0.5775
[2]; [12]
  Complete Media: 0.585
[2]; [13]
  Difference: 0.01

## N[C@@H](Cc1c[nH]c2ccc(O)cc12)C(=O)O [5-Hydroxytryptophan]
[1]; [14]
  Cholesterol-free: 1.189
[1]; NCI-H292 cells, complete media
  Complete: 0.856
[1]; complete vs cholesterol-free media, greater than 0 enhanced anti-cancer activity, about 0 neutral, below 0 antagonists
  Difference: −0.33
[2]; [6]
  Cholesterol-free media + simvastatin (0.04 μM): 1.063
[2]; drug in complete media
  Complete Media: 0.8252
[2]; [7]
  Difference: −0.24

## NC(=O)NC1NC(=O)NC1=O (stereo not shown) [Allantoin]
[1]; [8]
  Difference: −0.09
[1]; [9]
  Cholesterol-free: 0.5704
[1]; [10]
  Complete: 0.4823
[2]; [15]
  Cholesterol-free media + simvastatin (0.04 μM): 1.146
[2]; [16]
  Complete Media: 0.6387
[2]; [7]
  Difference: −0.51

## Nc1ccn([C@@H]2O[C@H](CO)[C@@H](O)[C@@H]2O)c(=O)n1 [Cytarabine (hydrochloride)]
[1]; [8]
  Difference: −0.08
[1]; [9]
  Cholesterol-free: 0.1883
[1]; [10]
  Complete: 0.1064
[2]; [11]
  Cholesterol-free media + simvastatin (0.04 μM): 0.3553
[2]; [12]
  Complete Media: 0.3011
[2]; [13]
  Difference: −0.05

## NC(=O)CN1CC(O)CC1=O (stereo not shown) [Oxiracetam]
[1]; [17]
  Difference: −0.22
[1]; [14]
  Cholesterol-free: 1.104
[1]; NCI-H292 cells, complete media
  Complete: 0.8826
[2]; [15]
  Cholesterol-free media + simvastatin (0.04 μM): 1.234
[2]; [16]
  Complete Media: 0.9456
[2]; [7]
  Difference: −0.29

## CCOC(=O)[C@H](CCc1ccccc1)N[C@@H](C)C(=O)N1Cc2cc(OC)c(OC)cc2C[C@H]1C(=O)O [Moexipril (hydrochloride)]
[1]; [17]
  Difference: 0.02
[1]; [3]
  Cholesterol-free: 1.004
[1]; [4]
  Complete: 1.024
[2]; [15]
  Cholesterol-free media + simvastatin (0.04 μM): 1.452
[2]; [16]
  Complete Media: 1.081
[2]; [7]
  Difference: −0.37

## C1CCN2C[C@@H]3C[C@@H](CN4CCCC[C@@H]34)[C@H]2C1 [(−)-Sparteine]
[1]; Complete minus Cholesterol-free, […]
  Difference: −0.60
[1]; [18]
  Cholesterol-free: 1.432
[1]; [19]
  Complete: 0.8366
[2]; cholesterol-free media with simvastatin 0.04 μM, […]
  Cholesterol-free media + simvastatin (0.04 μM): 1.054
[2]; complete media, […]
  Complete Media: 1.106
[2]; complete media minus cholesterol-free media + simvastatin, […]
  Difference: 0.05

## COc1ccc(-n2nc(C(N)=O)c3c2C(=O)N(c2ccc(N4CCCCC4=O)cc2)CC3)cc1 [Apixaban]
[1]; [17]
  Difference: −0.06
[1]; [3]
  Cholesterol-free: 0.9998
[1]; [4]
  Complete: 0.9349
[2]; [20]
  Cholesterol-free media + simvastatin (0.04 μM): 0.9978
[2]; [21]
  Complete Media: 1.135
[2]; [22]
  Difference: 0.14

## Cn1cnc2c(F)c(Nc3ccc(Br)cc3Cl)c(C(=O)NOCCO)cc21 [Selumetinib]
[1]; [8]
  Difference: −0.18
[1]; [9]
  Cholesterol-free: 0.4744
[1]; [10]
  Complete: 0.2899
[2]; [15]
  Cholesterol-free media + simvastatin (0.04 μM): 0.7343
[2]; [16]
  Complete Media: 0.4618
[2]; [7]
  Difference: −0.27

## N[C@@H](Cc1cc(I)c(Oc2cc(I)c(O)c(I)c2)c(I)c1)C(=O)O [L-Thyroxine]
[1]; [17]
  Difference: −0.28
[1]; [14]
  Cholesterol-free: 1.11
[1]; NCI-H292 cells, complete media
  Complete: 0.8302
[2]; [20]
  Cholesterol-free media + simvastatin (0.04 μM): 1.059
[2]; [21]
  Complete Media: 1.284
[2]; [22]
  Difference: 0.23

## CC(C)NC[C@H](O)COc1ccc(CCOCC2CC2)cc1 [Levobetaxolol (hydrochloride)]
[1]; Complete minus Cholesterol-free, greater than 0 enhanced anti-cancer activity, about 0 neutral, below 0 antagonists
  Difference: −0.54
[1]; [18]
  Cholesterol-free: 1.517
[1]; [19]
  Complete: 0.977
[2]; [11]
  Cholesterol-free media + simvastatin (0.04 μM): 1.004
[2]; [12]
  Complete Media: 0.9581
[2]; [13]
  Difference: −0.05

## Nc1nc2ccc(OC(F)(F)F)cc2s1 [Riluzole hydrochloride]
[1]; [17]
  Difference: −0.27
[1]; [14]
  Cholesterol-free: 1.152
[1]; NCI-H292 cells, complete media
  Complete: 0.8769
[2]; cholesterol-free media with simvastatin 0.04 μM, cell growth value in FDA drug screen
  Cholesterol-free media + simvastatin (0.04 μM): 0.9663
[2]; complete media, cell growth value in FDA drug screen
  Complete Media: 0.9877
[2]; [22]
  Difference: 0.02

## CS(=O)(=O)c1ccc(C2=C(c3ccccc3)C(=O)OC2)cc1 [Rofecoxib]
[1]; [3]
  Cholesterol-free: 1.041
[1]; [5]
  Difference: 0.11
[2]; [20]
  Cholesterol-free media + simvastatin (0.04 μM): 1.252
[2]; [7]
  Difference: −0.11
